# Reference: paper PMC13185819, “De Novo Multi‐Mechanism Antimicrobial Peptide Design via Multimodal Deep Learning” (Advanced Science, 2026)
# Residues, ends and D or L forms follow the SMILES beside them.
# Legend:
# [1] = test system: 25 strains of ESKAPE MDROs; assay type: cell-based; conditions: lowest value over gram-negative strains
# Summary of the method: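 CLSI broth microdilution; strains grown overnight on NB agar, 37°C; saline suspension to McFarland 0.5 (10^8 CFU/mL), diluted 100×; 1 × 10^6 CFU/mL bacteria + equal volume twofold peptide series in MH broth; n = 3 independent.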
# [2] = test system: intact or abraded skin of mice; assay: Mouse skin tolerance test; assay type: in vivo, C57BL/6J mice
# Protocol: For the skin local safety study, the intact or abraded skin of the mice was treated once with antimicrobial peptides QLX‐3DV‐1, QLX‐3DV‐2, or water. In brief, ten‐week‐old female C57BL/6J mice (n = 8 for each group) were anesthetized using isoflurane and administered buprenorphine as an analgesic at 0.1 mg/kg intraperitoneally. After removing the back hair of the mice, the skin on the back of the mice in the scratch group was sanded with 60‐grit sandpaper until the skin oozed blood. The intact skin group received no additional treatment except shaving. 10 µL QLX‐3DV‐1 and QLX‐3DV‐2 (150 mg/mL) or water was applied uniformly over the intact or abraded skin to assess the acute dermal toxicity. Groups without any addition served as untreated controls. Weight changes were recorded over 72 h. Histopathological characteristics of treated skin detected by H&E staining on the third day.
# mice = assay: Systemic safety, intraperitoneal injection; assay type: in vivo, C57BL/6J mice; conditions: intraperitoneal, 40 mg/kg, 12 h
# Protocol: The 10‐week‐old female C57BL/6J mice were randomly divided into three groups (n = 8 for each group). […] Mouse survival was monitored for 96 h. For pathologic analysis, mouse liver and kidneys were obtained by surgery for hematoxylin‐eosin (HE) staining after treatment with 40 mg/kg QLX‐3DV‐1 and QLX‐3DV‐2 for 12 h.
compound,measurement,setting,value
CC[C@H](C)[C@H](NC(=O)[C@H](CCCCN)NC(=O)[C@H](Cc1c[nH]c2ccccc12)NC(=O)[C@@H](N)CCCCN)C(=O)N[C@@H](CCCCN)C(=O)N[C@@H](Cc1c[nH]c2ccccc12)C(=O)N1CCC[C@H]1C(=O)N[C@H](C(=O)N[C@@H](CCCNC(=N)N)C(=O)N[C@@H](Cc1c[nH]c2ccccc12)C(=O)N[C@@H](Cc1ccccc1)C(=O)N[C@@H](CCCNC(=N)N)C(=O)N[C@@H](CCCCN)C(=O)N[C@@H](CC(C)C)C(N)=O)C(C)C [QLX-3DV-2] (H-KWKIKWPVRWFRKL-NH2),"MIC against gram-negative strains, as low as",[1],4 µg/mL
same,Gross pathology findings (Number of mice),"[2]; mouse, in vivo",0 / 8
same,"Histopathological findings, Fibrosis in the dermis (Number of mice)","[2]; mouse, in vivo",0 / 8
same,"Histopathological findings, Lymphohistiocytic infiltration in the dermis (Number of mice)","[2]; mouse, in vivo",0 / 8
same,"Skin irritation, Edema formation (Number of mice)","[2]; mouse, in vivo",0 / 8
same,"Skin irritation, Erythema formation (Number of mice)","[2]; mouse, in vivo",0 / 8
same,skin irritation or pathology at 72 h post-treatment,"[2]; shaved intact and abraded skin, 10 µL of 150 mg/mL",no signs of skin irritation or pathology
same,hepatorenal toxicity (H&E of liver and kidney),mice,no significant hepatorenal toxicity
